From US20190231847A1, “TREATMENT OF OCULAR DISEASE” (priority 2016, published 2019)

Columns and labels:
retinal inflammation = assay: Mouse experimental autoimmune uveitis (EAU) model, clinical score from fundus images (TEFI)
Protocol: The effect of ALM201 on autoimmune uveitis was tested in a mouse model of experimental autoimmune uveitis (EAU).
All mice were maintained in a normal experimental room and exposed to a 12-hour-dark-12-hour light cycle.
An additional 1 mg Bordetella pertussis toxin (Tocris Bioscience, Bristol, UK) was administered intraperitoneally immediately after peptide injection.
Mouse pupils were dilated with 1% atropine sulphate and 2.5% phenylephrine hydrochloride (Chauvin, Essex, UK). The animals were anaesthetised by isofluorane. […] Clinical score of retinal inflammation was accessed using the criteria described previously by us (Xu et al. 2008a).
Ten mice were assigned into each group.
All animals were treated for 10 days from day 14 to 24 p.i.
Group 2: ALM201 0.3 mg/kg in 100 ml, i.p. injection, once daily.
Group 3: ALM201 3 mg/kg in 100 ml, i.p. injection, once daily.
Group 4: Dexamethasone 0.5 mg/kg in 100 ml, p.o. (gavage), once daily.
Group 5: ALM201 0.3 mg/kg in 100 ml, i.p. injection+Dexamethasone 0.5 mg/kg in 100 ml, p.o. (gavage) once daily.
Data (Clinical score and histological score) was expressed as mean±SD. One way ANOVA followed by the Tukey's Multiple Comparison Test was used to detect difference between all treatment groups. In addition, Mann-Whitney U test (two tails) was used to detect the difference between ALM201 or dexamethasone treated group and PBS control group. Paired Student's t test was used to compare clinical score before and after treatment.

[1] = Bodyweight of EAU mice during the course of treatment; conditions: Dexamethasone 0.5 mg/kg p.o.; ALM201 0.3 mg/kg i.p.+Dexamethasone 0.5 mg/kg p.o.
Text: Bodyweight (BW) of each mouse was monitored daily during the course of treatment.

[2] = tested on: neovascularisation induced by sutures in the cornea; assay: Rat corneal suture model, Example 1 (blinded grading at day 6, images); format: in vivo; conditions: subconjunctival injection; 100 nM ALM201; Triamcinolone positive control
Protocol: To assess the action of ALM201 (SEQ ID NO:3) on the ocular surface, the ability to halt vessel growth was measured. Vessel growth was stimulated through a well-accepted model (Shi et al., 2011) whereby a suture was placed in the central cornea of rat eyes (FIG. 1). We have shown the rat eye is similar anatomically to the human eye (Moore J E, McMullen C B, Mahon G and Adamis A P. The corneal epithelial stem cell. DNA Cell Biol. 2002; 21(5-6):443-51; incorporated herein by reference).
The experimental groups were: • Subconjunctival injection of peptide (5 rats), control group (5 rats) and positive control group (5 rats) • Intrastromal injection of peptide (5 rats), control group (5 rats) and positive control group (5 rats) • Topical application of peptide (5 rats), control group (5 rats) and positive control group (5 rats)
A suture was placed in the central cornea of one eye of each animal while the control eye remained untouched. For the injection groups, peptide was added to the rat's eyes at day 0, day 3, and day 6. For the topical application group, peptide and the positive control was added daily. Each day after suture, rats were monitored for vessel growth and photographed using a Hawk Eye Portable Digital Slit Lamp (Dioptrix, France) and inverted microscope (Nikon's E600FN; Surrey, UK). At a time point when a difference is noted (e.g. day 6) between untreated and peptide treated animals, they received 8 μg/g tail vein injections of an endothelial-specific fluorescein-conjugated lectin (Lycopersicon esculentum; Vector Laboratories, Burlingame, Calif.). Thirty minutes later, the eyes were harvested and fixed with 10% neutral buffered formalin for 24 hours. The corneas were isolated and flat-mounted on glass slides. The fluorescence in the perfused vessels was captured using a Leica SP5 multiphoton microscope (Milton Keynes, UK). Vessel formation within tagged information file format (.tiff) files was measured by visualization with Image J (Rasband, 1997-2014).
At day 6 all rats were graded by an opthalmologist blinded to the treatment. Grading scales were as follows:
Vessel distance from suture: 0=no reach; 1=small distance; 2=moderate distance; 3=¾ of the way; 4=reached sutures;
Vessel density grading: 0=no density; 1=mild; 2=moderate; 3=high Inflammation grading: 0=none; 1=minimal; 2=moderate; 3=severe;

[3] = Dexamethasone 0.5 mg/kg p.o. once daily day 14-24 p.i., 10 mice

Row | Compound | No. of mice with decreased score (retinal inflammation; [3]) | No. of mice with increased score (retinal inflammation; [3]) | No. of mice with increased score (%) (retinal inflammation; [3]) | No. of mice with no change (retinal inflammation; [3]) | Average increment in EAU score (retinal inflammation; Dexamethasone 0.5 mg/kg, the 3 mice with increased score) | Average reduction in EAU score (retinal inflammation; Dexamethasone 0.5 mg/kg, the 3 mice with reduced score) | Bodyweight during the 10-day treatment period [1] | Vasculature in images (neovascularisation induced by sutures) [2]
1 | C[C@@H]1C[C@H]2[C@@H]3CCC4=CC(=O)C=C[C@]4(C)[C@@]3(F)[C@@H](O)C[C@]2(C)[C@@]1(O)C(=O)CO [Dexamethasone, reference compound] | 3 | 3 | (30%) | 4 | 0.80 | 0.69 | stable BW | 
2 | C[C@]12C=CC(=O)C=C1CC[C@H]1[C@@H]3C[C@@H](O)[C@](O)(C(=O)CO)[C@@]3(C)C[C@H](O)[C@@]12F [Triamcinolone, reference compound] |  |  |  |  |  |  |  | normal vasculature
